# Source: the supplement of paper PMC6045584
# ± gives the standard deviation of the averaged measurements.
# Key:
# CAMPTOTHECIN = compound: CC[C@@]1(O)C(=O)OCc2c1cc1n(c2=O)Cc2cc3ccccc3nc2-1 [CAMPTOTHECIN]; assay: surviving fraction relative to DMSO-only wells; higher = less growth inhibition; conditions: exposure time: 5 days
# Outline: (§1)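 Inhibitors were tested at 0.5, 1, 5, 10, 50, 100, 500 and 1000 nM, applied continuously for five days beginning 24 hours after log-phase tumour cells were seeded at 250–500 per well in 384-well plates. CellTiter-Glo luminescence served as the viability measure, expressed as surviving fraction against the median of DMSO-only wells. Each line, screened three times, was kept only with replicate Pearson r >0.7 and median Z' >0.3.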
# YM155 = compound: COCC[n+]1c2c(n(Cc3cnccn3)c1C)C(=O)c1ccccc1C2=O [YM155]; assay: as above; conditions: exposure time: 5 days
# Outline: as §1
Test System,surviving fraction (CAMPTOTHECIN; 0.5 nM),surviving fraction (CAMPTOTHECIN; 1 nM),surviving fraction (CAMPTOTHECIN; 5 nM),surviving fraction (CAMPTOTHECIN; 10 nM),surviving fraction (CAMPTOTHECIN; 50 nM),surviving fraction (CAMPTOTHECIN; 100 nM),surviving fraction (CAMPTOTHECIN; 500 nM),surviving fraction (CAMPTOTHECIN; 1000 nM),surviving fraction (YM155; 0.5 nM),surviving fraction (YM155; 1 nM),surviving fraction (YM155; 5 nM),surviving fraction (YM155; 10 nM),surviving fraction (YM155; 50 nM),surviving fraction (YM155; 100 nM),surviving fraction (YM155; 500 nM),surviving fraction (YM155; 1000 nM)
MDAMB436 BREAST,0.678 ± 0.074,0.677 ± 0.055,0.391 ± 0.047,0.318 ± 0.048,0.2 ± 0.017,0.177 ± 0.0068,0.142 ± 0.018,0.141 ± 0.022,0.932 ± 0.065,0.929 ± 0.14,0.744 ± 0.13,0.556 ± 0.099,0.195 ± 0.05,0.115 ± 0.031,0.0377 ± 0.0074,0.0453 ± 0.013
MDAMB453 BREAST,0.966 ± 0.069,0.966 ± 0.017,1.01 ± 0.048,0.942 ± 0.058,0.43 ± 0.03,0.453 ± 0.015,0.109 ± 0.016,0.091 ± 0.0027,0.989 ± 0.048,0.949 ± 0.089,0.306 ± 0.021,0.2993 ± 0.0025,0.11 ± 0.0085,0.0773 ± 0.014,0.0533 ± 0.0076,0.057 ± 0.017
MDAMB468 BREAST,0.872 ± 0.061,0.832 ± 0.095,0.782 ± 0.094,0.546 ± 0.056,0.158 ± 0.011,0.0843 ± 0.0055,0.0373 ± 0.0067,0.0367 ± 0.0025,0.953 ± 0.021,0.901 ± 0.035,0.325 ± 0.039,0.0717 ± 0.0067,0.034 ± 0.002,0.0367 ± 0.0031,0.0353 ± 0.0065,0.0377 ± 0.0021
MFM223 BREAST,0.746 ± 0.07,0.703 ± 0.03,0.566 ± 0.047,0.573 ± 0.11,0.754 ± 0.087,0.662 ± 0.041,0.296 ± 0.072,0.303 ± 0.1,0.966 ± 0.082,0.954 ± 0.19,0.259 ± 0.2,0.209 ± 0.15,0.0798 ± 0.051,0.085 ± 0.085,0.116 ± 0.16,0.138 ± 0.18
MG63 BONE,0.873 ± 0.015,0.871 ± 0.028,0.434 ± 0.019,0.295 ± 0.0068,0.0393 ± 0.0065,0.024 ± 0.001,0.02 ± 0.001,0.023 ± 0.001,0.978 ± 0.036,1.04 ± 0.057,0.783 ± 0.048,0.659 ± 0.026,0.0477 ± 0.0021,0.0237 ± 0.0015,0.021 ± 0.001,0.027 ± 0.0017
MHM BONE,0.9523 ± 0.0021,0.969 ± 0.031,0.94 ± 0.026,0.927 ± 0.025,0.462 ± 0.022,0.334 ± 0.017,0.16 ± 0.016,0.121 ± 0.0075,0.972 ± 0.013,0.998 ± 0.021,1.01 ± 0.011,1.05 ± 0.016,0.299 ± 0.013,0.202 ± 0.0085,0.0287 ± 0.0011,0.0323 ± 0.00058
NCIH441 LUNG,0.951 ± 0.045,0.896 ± 0.03,0.743 ± 0.019,0.474 ± 0.031,0.201 ± 0.02,0.114 ± 0.016,0.0587 ± 0.0095,0.044 ± 0.003,0.991 ± 0.038,1.05 ± 0.024,0.547 ± 0.064,0.284 ± 0.023,0.0333 ± 0.0011,0.0273 ± 0.00058,0.023 ± 0.001,0.0267 ± 0.0011
NY BONE,0.894 ± 0.052,0.905 ± 0.021,0.648 ± 0.026,0.184 ± 0.012,0.067 ± 0.0061,0.0407 ± 0.0015,0.02 ± 0.0017,0.0217 ± 0.0021,0.911 ± 0.035,0.949 ± 0.017,0.965 ± 0.021,0.997 ± 0.031,1.01 ± 0.02,0.988 ± 0.037,0.449 ± 0.023,0.346 ± 0.0047
